Laboratory results published in a melting point compilation (Tetko et al.).

| SMILES | melting point |
| --- | --- |
| COc1ccc(NN=c2c(C)nc3ccccc3[nH]c2=O)cc1 | 196 °C |
| O=S(=O)(c1ccccc1)c1cccs1 | 123 °C |
| O=C(O)C=Cc1ccc(Oc2ccccc2)nc1 | 204 to 206 °C |
| O=[N+]([O-])c1ccc2c(O)c(-c3cccc(-c4[nH]c5cc([N+](=O)[O-])ccc5c4O)c3)[nH]c2c1 | 266 °C |
| O=Cc1cc(Cl)cc(Cl)c1O | 96 °C |
| c1ccc(-c2nnc3n2NC(c2ccccc2)S3)cc1 (stereo unspecified) | 83 °C |
| O=C(c1ccc([N+](=O)[O-])cc1)c1noc(-c2ccc(Br)cc2)c1S(=O)(=O)c1ccccc1 | 178 °C |
| COC(=O)c1c(SC)nc(-c2ccccc2)[nH]c1=O | 283 to 285 °C |
| O=C1Cc2cc(C(=O)CBr)ccc2N1 | 225 °C |
| CCC(=O)c1ccc(F)c(C(F)(F)F)c1 | 32 °C |
| OCc1cc2ccccc2s1 | 100 °C |
| CCCCCCCCC(=O)OCCCCCCC | -15.5 °C |
| CNCc1ccc(N2CCN(C(=O)OC(C)(C)C)CC2)cc1 | 60 to 62 °C |
| COC(=O)c1ccc2c(C=O)c[nH]c2c1 | 219 to 224 °C |
| CCCCC(c1ccccc1)c1ccccc1 | -12 °C |
| CN(c1c(F)c(F)c(C#N)c(F)c1F)N(O)O | 53 °C |
| C/C(C#Cc1ccccc1)=C/C(C)=N/Nc1ccc([N+](=O)[O-])cc1[N+](=O)[O-] | 210 to 212 °C |
| O=C(Nc1ccccc1)N(Cc1ccc(Cl)cc1)C1CCCC1 | 132 °C |
| CC(=O)Nc1ccc(N)cn1 | 154 °C |
| CCCCC[C@H]1CC[C@H](C(=O)O)CC1 | 52 to 56 °C |
| COP(=S)(OC)Oc1ccc([N+](=O)[O-])c(C)c1 | 3.4 °C |
| Cc1cc(C)n2nc(N)c(/N=N/c3ccccc3C)c2n1 | 256 °C |
| NC(=S)C1CCN(C(=O)OCc2ccccc2)CC1 | 128 to 130 °C |

| SMILES | melting point |
| --- | --- |
| Oc1ccc(Cl)c(Cl)c1Cl | 83.5 °C |
| CC12CCC(=O)CC1CCC1C2CCC2(C)C1CCC2(C)O (stereo unspecified) | 192 °C |
| C=C1CC23CC1(O)CCC2C12C=CC(O)C(C)(C(=O)O1)C2C3C(=O)O (stereo unspecified) | 227 °C |
| CCCCCCC(=O)CCC | -9 °C |
| O=C(O)C=CC(=O)Nc1ccc(I)cc1 | 194 °C |
| Cc1c(O)ccc(O)c1C | 224 °C |
| N#Cc1ccc(Cl)cc1F | 60 °C |
| COc1ccc(C2Nn3c(nnc3-c3ccc([N+](=O)[O-])cc3)S2)cc1 (stereo unspecified) | 153 °C |
| CN(C)C(=O)C(C(F)(F)F)C(F)(F)F | 54 °C |
| CCCCCCC(C=O)=Cc1ccccc1 | 39.2 °C |
| CC(C)(C)c1ccc(-c2nnc(S)n2Cc2ccco2)cc1 | 156 to 158 °C |
| O=C(O)c1ccc(-n2cccn2)cc1 | 269 to 270 °C |
| Cc1ccc[nH]1 | -35.6 °C |
| CS(=O)(=O)c1noc(-c2cccs2)c1C#N | 167 to 168 °C |
| O=C(CBr)c1cc2cc(Br)ccc2o1 | 140 to 141 °C |
| Cc1nc2cc([N+](=O)[O-])ccc2s1 | 133 °C |
| COc1ccc(CN2CCc3ccccc3C2)cc1O | 129 °C |
| CCN(CCO)CCn1c(Cc2ccccc2)nc2c1c(=O)n(C)c(=O)n2C | 80 °C |
| COc1ccc2nonc2c1 | 99 to 102 °C |
| NC(=NO)c1cccnc1 | 130 to 131 °C |
| C=CCN(CC=C)c1c(C)cc(OC(=O)NC)cc1C | 67 °C |
| COc1c(Cl)c(C)c2c(c1Cl)OC(=O)c1c(C)c(Cl)c(O)c(Cl)c1O2 | 232 °C |
| O=Cc1cccn1-c1ccc(Cl)cc1 | 92 to 96 °C |

| SMILES | melting point |
| --- | --- |
| Fc1cc2nc(S)[nH]c2cc1Cl | 298 to 301 °C |
| N#Cc1cccc(C(=O)Cl)c1 | 38 to 44 °C |
| CCC(C)(CC)C(C)(C)C | -42.5 °C |
| CN1C2CC3CC1C(O3)C2O (stereo unspecified) | 108 °C |
| Fc1cc(CBr)ccc1Cl | 32 °C |
| Cc1cc(C(F)(F)F)n2nc(N)c(/N=N/c3cccc4ccccc34)c2n1 | 236 °C |
| OCc1cc(C(F)(F)F)ccc1Br | 72 °C |
| C=C1C(=O)C23C4CC5C(C)(C)CCC(OC(C)=O)C5(C(=O)O4)C2C(OC(C)=O)CC1C3OC(C)=O (stereo unspecified) | 230 °C |
| Cc1ccccc1C#N | -13.5 °C |
| Nc1nc(Br)c2ccccc2c1Cc1ccccc1 | 155 to 156 °C |
| O=S(=O)(Cl)c1ccc(-c2ccno2)s1 | 69 to 70 °C |
| CCOC(=O)c1c(C)sc(Sc2ccccc2[N+](=O)[O-])c1OC(C)=O | 130 to 131 °C |
| CC1=NNC(=O)C1=NNc1cccc(F)c1 | 218 °C |
| Cc1c(C=O)cnn1-c1ccc(F)cc1 | 113 to 115 °C |
| CN1CCOc2cc(C#N)cnc21 | 107 to 109 °C |
| C#CCCCCCCCCC(=O)O | 42 °C |
| Cc1cc(N(C)C)nc(Cl)n1 | 87 °C |
| CCCC(C)(C)C(=O)Nc1ccc(Cl)cc1 | 87.5 °C |
| O=C(O)CCc1ccc(Cl)cc1 | 119 °C |
| CCOC(=O)c1c(-c2ccccc2)csc1NC(=O)c1ccccc1Cl | 131 to 132 °C |
| CC(=O)C(C#N)c1ccccc1[N+](=O)[O-] (stereo unspecified) | 72 °C |
| CC(C)(C)NC(=O)COC(=O)c1ccccc1 | 112 °C |
| O=C(C(C(=O)N1CCCCC1)c1ccccc1)N1CCCCC1 | 144 °C |

| SMILES | melting point |
| --- | --- |
| CN(CCO)c1cc(C(F)(F)F)nc2ccccc12 | 90.5 to 92.5 °C |
| CCc1nc(CC)nc(NS(=O)(=O)c2ccc(N)cc2)n1 | 187 °C |
| Nc1ccc(C2(c3ccc(N)cc3)OC(=O)c3ccccc32)cc1 | 203 °C |
| COC(=O)c1ccc(OC)c(C#N)c1 | 124 to 125 °C |
| O=C1C(C(O)c2ccc(Cl)cc2)C(C(F)(F)F)=NN1c1ccccc1 (stereo unspecified) | 168 °C |
| Cc1c(C(N)=O)cc([N+](=O)[O-])cc1[N+](=O)[O-] | 177 °C |
| Nc1ncc(Br)cn1 | 239 to 244 °C |
| O=S(=O)(Cl)c1ccc(-c2ccccn2)s1 | 87 to 89 °C |
| CCCCCCCCCCCCCCCCCC(=O)OCC(O)CO (stereo unspecified) | 74 °C |
| COC(=O)c1cc(C)[nH]n1 | 82 °C |
| CCOC(=O)C(ON=C(c1cc2ccccc2o1)c1cc2ccccc2o1)C(=O)OCC | 137 to 138 °C |
| O=C(O)c1n[nH]c2ccccc12 | 259 to 262 °C |
| COC(=O)c1cc(C)nc(Cl)n1 | 110 to 111 °C |
| Cc1cc(C)c([N+](=O)[O-])c(C)c1 | 44 °C |
| O=[N+]([O-])c1cc([N+](=O)[O-])c(/C(Cl)=C\c2ccccc2)cc1C(Cl)=Cc1ccccc1 | 146 °C |
| CC(=O)OCCN(CCOC(C)=O)CCOC(C)=O | -40 °C |
| CN(C)CCc1c[nH]c2cccc(OP(=O)(O)O)c12 | 224 °C |
| Cc1nc(CO)cs1 | 50 °C |
| CSc1nc2cc(NCc3ccc4c(c3)OCO4)ccc2[nH]1 | 146 to 148 °C |
| Cn1c(=O)c(C2=NNC(=O)C2=NNc2ccccc2Cl)c(O)c2ccccc21 | 264 °C |
| S=c1sc2nc3ccccc3nc2s1 | 180 °C |
| O=[N+]([O-])c1ccc2ncsc2c1 | 175 °C |
